Values quoted from earlier work as cited in patent US5250561A, “Tetrahydroindazole, tetrahydrocyclopentapyrazole, and hexahydrocycloheptapyrazole compounds and their use as HMG-COA reductase inhibitors” (Ortho Pharmaceutical Corporation, priority 1992, dated 1993).

How the values were obtained:
[1] = cited from earlier work
HMG-CoA reductase = details: lovastatin: open dihydroxy acid form; cited from earlier work

SMILES | effect of combined administration with other hypolipidemic agents on LDL and total cholesterol concentrations ([1]; combination) | reduction of LDL cholesterol levels compared with cholestyramine and probucol ([1]; primary hypercholesterolemia) | increase in high density lipoprotein (HDL) cholesterol concentration ([1]; several large clinical studies) | inhibition of HMG-CoA reductase (in words) (HMG-CoA reductase)
CC[C@H](C)C(=O)O[C@H]1C[C@@H](C)C=C2C=C[C@H](C)[C@H](CC[C@@H]3C[C@@H](O)CC(=O)O3)[C@H]21 [lovastatin] | potentiate their effects on LDL and total cholesterol concentrations | reduced LDL cholesterol levels to a significantly greater extent | up to 10% | reversible, competitive inhibitor of the enzyme
CCC(C)(C)C(=O)O[C@H]1C[C@@H](C)C=C2C=C[C@H](C)[C@H](CC[C@@H]3C[C@@H](O)CC(=O)O3)[C@H]21 [simvastatin] |  |  |  | inhibitors of HMG-CoA reductase
